Question: What does the source list for `O=[N+]([O-])c1c(Cl)cc(Cl)c([N+](=O)[O-])c1Cl`?
Answer: solubility (mole fraction) (in 1,2-dichloroethane, 278.15 K): 0.0536; solubility (mole fraction) (in 1,2-dichloroethane, 283.15 K): 0.0636; solubility (mole fraction) (in 1,2-dichloroethane, 288.15 K): 0.0732; solubility (mole fraction) (in 1,2-dichloroethane, 293.15 K): 0.0837; solubility (mole fraction) (in 1,2-dichloroethane, 298.15 K): 0.0961; solubility (mole fraction) (in 1,2-dichloroethane, 303.15 K): 0.108; solubility (mole fraction) (in 1,2-dichloroethane, 308.15 K): 0.123; solubility (mole fraction) (in 1,2-dichloroethane, 313.15 K): 0.144; solubility (mole fraction) (in 1,2-dichloroethane, 318.15 K): 0.168; solubility (mole fraction) (in acetone, 278.15 K): 0.0844; solubility (mole fraction) (in acetone, 283.15 K): 0.0944; solubility (mole fraction) (in acetone, 288.15 K): 0.106; solubility (mole fraction) (in acetone, 293.15 K): 0.117; solubility (mole fraction) (in acetone, 298.15 K): 0.13; solubility (mole fraction) (in acetone, 303.15 K): 0.145; solubility (mole fraction) (in acetone, 308.15 K): 0.162; solubility (mole fraction) (in acetone, 313.15 K): 0.18; solubility (mole fraction) (in acetone, 318.15 K): 0.2; solubility (mole fraction) (in acetonitrile, 278.15 K): 0.0224; solubility (mole fraction) (in acetonitrile, 283.15 K): 0.0267; solubility (mole fraction) (in acetonitrile, 288.15 K): 0.0313; solubility (mole fraction) (in acetonitrile, 293.15 K): 0.0373; solubility (mole fraction) (in acetonitrile, 298.15 K): 0.0447; solubility (mole fraction) (in acetonitrile, 303.15 K): 0.0531; solubility (mole fraction) (in acetonitrile, 308.15 K): 0.0635; solubility (mole fraction) (in acetonitrile, 313.15 K): 0.0769; solubility (mole fraction) (in acetonitrile, 318.15 K): 0.0928; solubility (mole fraction) (in chloroform, 278.15 K): 0.0715; solubility (mole fraction) (in chloroform, 283.15 K): 0.0892; solubility (mole fraction) (in chloroform, 288.15 K): 0.0997; solubility (mole fraction) (in chloroform, 293.15 K): 0.11; solubility (mole fraction) (in chloroform, 298.15 K): 0.121; solubility (mole fraction) (in chloroform, 303.15 K): 0.129; solubility (mole fraction) (in chloroform, 308.15 K): 0.141; solubility (mole fraction) (in chloroform, 313.15 K): 0.165; solubility (mole fraction) (in chloroform, 318.15 K): 0.197; solubility (mole fraction) (in dichloromethane, 278.15 K): 0.0668; solubility (mole fraction) (in dichloromethane, 283.15 K): 0.0758; solubility (mole fraction) (in dichloromethane, 288.15 K): 0.0869; solubility (mole fraction) (in dichloromethane, 293.15 K): 0.0981; solubility (mole fraction) (in dichloromethane, 298.15 K): 0.11; solubility (mole fraction) (in dichloromethane, 303.15 K): 0.125; solubility (mole fraction) (in dichloromethane, 308.15 K): 0.141; solubility (mole fraction) (in dichloromethane, 311.15 K): 0.147; solubility (mole fraction) (in ethanol, 278.15 K): 0.00389; solubility (mole fraction) (in ethanol, 283.15 K): 0.00461; solubility (mole fraction) (in ethanol, 288.15 K): 0.00539; solubility (mole fraction) (in ethanol, 293.15 K): 0.0062; solubility (mole fraction) (in ethanol, 298.15 K): 0.00712; solubility (mole fraction) (in ethanol, 303.15 K): 0.00831; solubility (mole fraction) (in ethanol, 308.15 K): 0.00969; solubility (mole fraction) (in ethanol, 313.15 K): 0.0113; solubility (mole fraction) (in ethanol, 318.15 K): 0.0132; solubility (mole fraction) (in ethyl acetate, 278.15 K): 0.0768; solubility (mole fraction) (in ethyl acetate, 283.15 K): 0.0849; solubility (mole fraction) (in ethyl acetate, 288.15 K): 0.0947; solubility (mole fraction) (in ethyl acetate, 293.15 K): 0.105; solubility (mole fraction) (in ethyl acetate, 298.15 K): 0.116; solubility (mole fraction) (in ethyl acetate, 303.15 K): 0.13; solubility (mole fraction) (in ethyl acetate, 308.15 K): 0.145; solubility (mole fraction) (in ethyl acetate, 313.15 K): 0.16; solubility (mole fraction) (in ethyl acetate, 318.15 K): 0.177; solubility (mole fraction) (in methanol, 278.15 K): 0.0034; solubility (mole fraction) (in methanol, 283.15 K): 0.00426; solubility (mole fraction) (in methanol, 288.15 K): 0.00698; solubility (mole fraction) (in methanol, 293.15 K): 0.0221; solubility (mole fraction) (in methanol, 298.15 K): 0.0422; solubility (mole fraction) (in methanol, 303.15 K): 0.0562; solubility (mole fraction) (in methanol, 308.15 K): 0.0718; solubility (mole fraction) (in methanol, 313.15 K): 0.0849; solubility (mole fraction) (in methanol, 318.15 K): 0.0909; solubility (mole fraction) (in methyl acetate, 278.15 K): 0.074; solubility (mole fraction) (in methyl acetate, 283.15 K): 0.0832; solubility (mole fraction) (in methyl acetate, 288.15 K): 0.0943; solubility (mole fraction) (in methyl acetate, 293.15 K): 0.109; solubility (mole fraction) (in methyl acetate, 298.15 K): 0.124; solubility (mole fraction) (in methyl acetate, 303.15 K): 0.14; solubility (mole fraction) (in methyl acetate, 308.15 K): 0.156; solubility (mole fraction) (in methyl acetate, 313.15 K): 0.173; solubility (mole fraction) (in methyl acetate, 318.15 K): 0.19; solubility (mole fraction) (in n-butanol, 278.15 K): 0.00475; solubility (mole fraction) (in n-butanol, 283.15 K): 0.00566; solubility (mole fraction) (in n-butanol, 288.15 K): 0.00668; solubility (mole fraction) (in n-butanol, 293.15 K): 0.00776; solubility (mole fraction) (in n-butanol, 298.15 K): 0.00906; solubility (mole fraction) (in n-butanol, 303.15 K): 0.0108; solubility (mole fraction) (in n-butanol, 308.15 K): 0.013; solubility (mole fraction) (in n-butanol, 313.15 K): 0.0157; solubility (mole fraction) (in n-butanol, 318.15 K): 0.0189; solubility (mole fraction) (in n-propanol, 278.15 K): 0.00412; solubility (mole fraction) (in n-propanol, 283.15 K): 0.0049; solubility (mole fraction) (in n-propanol, 288.15 K): 0.00565; solubility (mole fraction) (in n-propanol, 293.15 K): 0.00668; solubility (mole fraction) (in n-propanol, 298.15 K): 0.00793; solubility (mole fraction) (in n-propanol, 303.15 K): 0.00921; solubility (mole fraction) (in n-propanol, 308.15 K): 0.0109; solubility (mole fraction) (in n-propanol, 313.15 K): 0.0132; solubility (mole fraction) (in n-propanol, 318.15 K): 0.0158; solubility (mole fraction) (in tetrachloromethane, 278.15 K): 0.0155; solubility (mole fraction) (in tetrachloromethane, 283.15 K): 0.0185; solubility (mole fraction) (in tetrachloromethane, 288.15 K): 0.0224; solubility (mole fraction) (in tetrachloromethane, 293.15 K): 0.0277; solubility (mole fraction) (in tetrachloromethane, 298.15 K): 0.0341; solubility (mole fraction) (in tetrachloromethane, 303.15 K): 0.0411; solubility (mole fraction) (in tetrachloromethane, 308.15 K): 0.0492; solubility (mole fraction) (in tetrachloromethane, 313.15 K): 0.0589; solubility (mole fraction) (in tetrachloromethane, 318.15 K): 0.0695

— BigSolDB 2.1
